The source made the active and inactive calls. The rule behind the calls is not given here.
Key:
[1] = tested on: THP-1; assay: Antiinflammatory activity in human PMA-stimulated THP1 cells assessed as inhibition of LPS-induced TNFalpha production at 1 uM treated 30 mins before LPS challenge measured after 24 hrs by ELISA; type: functional
[2] = tested on: THP-1; assay: Antiinflammatory activity in human PMA-stimulated THP1 cells assessed as inhibition of LPS-induced IL-6 production at 1 uM treated 30 mins before LPS challenge measured after 24 hrs by ELISA; type: functional
[3] = tested on: THP-1; assay: Antiinflammatory activity in human PMA-stimulated THP1 cells assessed as inhibition of LPS-induced TNFalpha production at 10 uM treated 30 mins before LPS challenge measured after 24 hrs by ELISA; type: functional
[4] = tested on: THP-1; assay: Antiinflammatory activity in human PMA-stimulated THP1 cells assessed as inhibition of LPS-induced IL-6 production at 10 uM treated 30 mins before LPS challenge measured after 24 hrs by ELISA; type: functional
[5] = tested on: Staphylococcus aureus; assay: Antibacterial activity against Staphylococcus aureus up to 200 ug/ml by agar well diffusion method; type: functional, organism-based
[6] = tested on: Bacillus subtilis; assay: Antibacterial activity against Bacillus subtilis up to 200 ug/ml by agar well diffusion method; type: functional, organism-based
[7] = tested on: Escherichia coli; assay: Antibacterial activity against Escherichia coli up to 200 ug/ml by agar well diffusion method; type: functional, organism-based
[8] = tested on: Salmonella typhimurium; assay: Antibacterial activity against Salmonella typhimurium up to 200 ug/ml by agar well diffusion method; type: functional, organism-based; settings: Salmonella enterica subsp. enterica serovar Typhimurium
[9] = tested on: Candida albicans; assay: Antifungal activity against Candida albicans up to 200 ug/ml by agar well diffusion method; type: functional, organism-based
[10] = tested on: Aspergillus niger; assay: Antifungal activity against Aspergillus niger up to 200 ug/ml by agar well diffusion method; type: functional, organism-based
[11] = tested on: Fusarium solani; assay: Antifungal activity against Fusarium solani up to 200 ug/ml by agar well diffusion method; type: functional, organism-based
[12] = tested on: Aspergillus flavus; assay: Antifungal activity against Aspergillus flavus up to 200 ug/ml by agar well diffusion method; type: functional, organism-based

Row | Structure (SMILES) | inhibition at 1 µM [1] [%] | inhibition at 1 µM [2] [%] | inhibition at 10 µM [3] [%] | inhibition at 10 µM [4] [%] | Activity [5] | Activity [6] | Activity [7] | Activity [8] | Activity [9] | Activity [10] | Activity [11] | Activity [12]
1 | C[C@@H]1C[C@H]2[C@@H]3CCC4=CC(=O)C=C[C@]4(C)[C@@]3(F)[C@@H](O)C[C@]2(C)[C@@]1(O)C(=O)CO [DEXAMETHASONE] | 72 | 86 |  |  |  |  |  |  |  |  |  | 
2 | O=[N+]([O-])c1ccc(-c2cc(Nc3cccc(C(F)(F)F)c3)ncn2)cc1 |  |  | 0 | 0 | inactive | inactive | inactive | inactive | inactive | inactive | inactive | inactive
